Data as given in US20260364089A1, “PYRIDOPYRIMIDINE KRAS INHIBITORS” (Treeline Biosciences, Inc., priority 2022, published 2026).

These compounds were tested against T1, KRas G12V (Homo sapiens, UniProt P01116, G12V) (assay: SOS1-Catalyzed Nucleotide Exchange Assay, KRas G12V (Method 2)). Details: Method 2, A; 5 nM KRas G12V (aa 1-169, GDP-loaded), 50 nM SOS1; read-out: KRas G12V IC50 (nM) (Method 2, A).
T1 construct: Biotinylated KRas G12V (aa 1-169) loaded with GDP nucleotide; biotin (biotinylated)
T1 sequence (P01116 1-169 G12V): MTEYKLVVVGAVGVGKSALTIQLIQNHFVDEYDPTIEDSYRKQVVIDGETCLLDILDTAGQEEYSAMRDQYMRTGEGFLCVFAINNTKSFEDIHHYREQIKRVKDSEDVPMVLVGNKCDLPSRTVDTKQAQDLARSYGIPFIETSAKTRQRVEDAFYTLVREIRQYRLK
Type: biochemical
Method: KRas G12V [Method 2]: Compounds were pre-dispensed via Echo liquid handling (acoustic, touch-free) to generate assay ready plates (ARP). More precisely, a 10-point concentration response curve for each compound was prepared with appropriate top concentration (1 μM, 10 μM, 100 μM). Biotinylated KRas G12V (aa 1-169) loaded with GDP nucleotide and Streptavidin-Europium (SA-EU, Columbia Biosciences) were preincubated in assay buffer (20 mM HEPES pH 7.4, 150 mM NaCl, 5 mM MgCl2, 1 mM DTT, 0.01% Brij-35, 0.3 mg/mL BSA) on ice for 30 min. Separately SOS1 (aa 546-1049) and EDA-GTP-DY647P1 (Jena Bioscience) were preincubated in assay buffer on ice for 30 min. After 30 minutes of incubation for the assay components, 5 μL buffer and 5 μL of KRas G12V-SA-Eu were added to each well of the ARP. After a further 30 min, 5 μL of SOS1-EDA-GTP-D467P1 was added to start the nucleotide exchange reaction. Final concentration in the assay were 5 nM KRas G12V, 50 nM SOS1 (aa 564-1049). The reaction was allowed to proceed for 60-90 minutes after which the plate was read on a plate reader. After normalization of the raw data, the data was fit to a four-parameter logistic curve.
In the case of O=C1CCCCc2c(Cl)cc(O)cc2-c2ncc3c(nc(OC[C@@]45CCCN4C[C@H](F)C5)nc3c2F)N2CCCC(O)(CCN1)C2 (single isomer, unassigned) [Compound 140b], the IC50 is reported as ≤ 100 nM. O=C1CCCc2c(F)ccc3cc(O)cc(c23)-c2ncc3c(nc(OC[C@@]45CCCN4C[C@H](F)C5)nc3c2F)N2CCCC(CN1)C2 (stereo partly drawn) [Compound 135a, 2^8,3^7-difluoro-2^2-(((2R,7aS)-2-fluorotetrahydro-1H-pyrrolizin-7a(5H)-yl)methoxy)-3^3-hydroxy-8-aza-2(4,7)-pyrido[4,3-d]pyrimidina-1(1,3)-piperidina-3(1,8)-naphthalenacyclononaphan-7-one] was tested, and the IC50 was ≤ 100 nM. With Nc1cc(Cl)c2c(c1)-c1ncc3c(nc(OC[C@@]45CCCN4C[C@H](F)C5)nc3c1F)N1CCCC(CCNC(=O)CCCC2)C1 (stereo partly drawn) [Compound 154a, 3^5-amino-3^3-chloro-2^8-fluoro-2^2-(((2R,7aS)-2-fluorotetrahydro-1H-pyrrolizin-7a(5H)-yl)methoxy)-9-aza-2(4,7)-pyrido[4,3-d]pyrimidina-1(1,3)-piperidina-3(1,2)-benzenacycloundecaphan-8-one] the IC50 was ≤ 100 nM. Work on Nc1cc(Cl)c2c(c1)-c1c(Cl)cc3c(nc(OC[C@@]45CCCN4C[C@H](F)C5)nc3c1F)N1CCCC(CCNC(=O)CCCC2)C1 (stereo partly drawn) [Compound 155a, 3^5-amino-2^6,3^3-dichloro-2^8-fluoro-2^2-(((2R,7aS)-2-fluorotetrahydro-1H-pyrrolizin-7a(5H)-yl)methoxy)-9-aza-2(4,7)-quinazolina-1(1,3)-piperidina-3(1,2)-benzenacycloundecaphan-8-one] yielded an IC50 of 1000 to 10000 nM. In the case of Nc1cc(Cl)c2c(c1)-c1ncc3c(nc(OC[C@@]45CCCN4C[C@H](F)C5)nc3c1F)N1CCCC(O)(CCNC(=O)CCCC2)C1 (stereo partly drawn) [Compound 156a, 3^5-amino-3^3-chloro-2^8-fluoro-2^2-(((2R,7aS)-2-fluorotetrahydro-1H-pyrrolizin-7a(5H)-yl)methoxy)-13-hydroxy-9-aza-2(4,7)-pyrido[4,3-d]pyrimidina-1(1,3)-piperidina-3(1,2)-benzenacycloundecaphan-8-one], the IC50 is reported as ≤ 100 nM. Nc1ccc2c(c1)-c1ncc3c(nc(OC[C@@]45CCCN4C[C@H](F)C5)nc3c1F)N1CCCC(O)(CCNC(=O)CCCC2)C1 (stereo partly drawn) [Compound 157a, 3^5-amino-2^8-fluoro-2^2-(((2R,7aS)-2-fluorotetrahydro-1H-pyrrolizin-7a(5H)-yl)methoxy)-1^3-hydroxy-9-aza-2(4,7)-pyrido[4,3-d]pyrimidina-1(1,3)-piperidina-3(1,2)-benzenacycloundecaphan-8-one] gave an IC50 of 1000 to 10000 nM. Nc1cc(Cl)c2c(c1)-c1c(Cl)cc3c(nc(OC[C@@]45CCCN4C[C@H](F)C5)nc3c1F)N1CCCC(O)(CCNC(=O)CCCC2)C1 (stereo partly drawn) [Compound 158a, 3^5-amino-2^6,3^3-dichloro-2^8-fluoro-2^2-(((2R,7aS)-2-fluorotetrahydro-1H-pyrrolizin-7a(5H)-yl)methoxy)-1^3-hydroxy-9-aza-2(4,7)-quinazolina-1(1,3)-piperidina-3(1,2)-benzenacycloundecaphan-8-one] showed an IC50 of 1000 to 10000 nM. Nc1cc2c(cc1F)CCCCC(=O)NCCC1CCCN(C1)c1nc(OC[C@@]34CCCN3C[C@H](F)C4)nc3c(F)c-2ncc13 (stereo partly drawn) [Compound 159a, 3^5-amino-2^8,3^4-difluoro-2^2-(((2R,7aS)-2-fluorotetrahydro-1H-pyrrolizin-7a(5H)-yl)methoxy)-9-aza-2(4,7)-pyrido[4,3-d]pyrimidina-1(1,3)-piperidina-3(1,2)-benzenacycloundecaphan-8-one] gave an IC50 of 1000 to 10000 nM. With Nc1ccc2c(c1F)-c1ncc3c(nc(OC[C@@]45CCCN4C[C@H](F)C5)nc3c1F)N1CCCC(CCNC(=O)CCCC2)C1 (stereo partly drawn) [Compound 160a, 3^5-amino-2^8,3^6-difluoro-2^2-(((2R,7aS)-2-fluorotetrahydro-1H-pyrrolizin-7a(5H)-yl)methoxy)-9-aza-2(4,7)-pyrido[4,3-d]pyrimidina-1(1,3)-piperidina-3(1,2)-benzenacycloundecaphan-8-one] the IC50 was 10000 to 30000 nM. In the case of Nc1cc2c(cc1F)CCCCC(=O)NCCC1(O)CCCN(C1)c1nc(OC[C@@]34CCCN3C[C@H](F)C4)nc3c(F)c-2ncc13 (stereo partly drawn) [Compound 161a, 3^5-amino-2^8,3^4-difluoro-2^2-(((2R,7aS)-2-fluorotetrahydro-1H-pyrrolizin-7a(5H)-yl)methoxy)-1^3-hydroxy-9-aza-2(4,7)-pyrido[4,3-d]pyrimidina-1(1,3)-piperidina-3(1,2)-benzenacycloundecaphan-8-one], the IC50 is reported as 1000 to 10000 nM.

Same assay, conditions: Method 2, B; 5 nM KRas G12V (aa 1-169, GDP-loaded), 50 nM SOS1; read-out: KRas G12V IC50 (nM) (Method 2, B)
In the case of O=C1CCCCc2c(Cl)cc(O)cc2-c2ncc3c(nc(OC[C@@]45CCCN4C[C@H](F)C5)nc3c2F)N2CCCC(O)(CCN1)C2 (single isomer, unassigned) [Compound 140b], the IC50 is reported as ≤ 100 nM. With O=C1CCCCc2c(Cl)cc(O)cc2-c2ncc3c(nc(OC[C@@]45CCCN4C[C@H](F)C5)nc3c2F)N2CCCC(O)(CCN1)C2 (single isomer, unassigned) [Compound 140c] the IC50 was ≤ 100 nM. Nc1cc2c(cc1F)CCCCC(=O)NCCC1CCCN(C1)c1nc(OC[C@@]34CCCN3C[C@H](F)C4)nc3c(F)c-2ncc13 (single isomer, unassigned) [Compound 159b] was tested, and the IC50 was 1000 to 10000 nM. Nc1cc2c(cc1F)CCCCC(=O)NCCC1CCCN(C1)c1nc(OC[C@@]34CCCN3C[C@H](F)C4)nc3c(F)c-2ncc13 (single isomer, unassigned) [Compound 159c] showed an IC50 of 10000 to 30000 nM. Compound Nc1cc2c(c(Cl)n1)CCCCC(=O)NCCC1(O)CCCN(C1)c1nc(OC[C@@]34CCCN3C[C@H](F)C4)nc3c(F)c-2c(F)cc13 (single isomer, unassigned) [Compound 188a] has an IC50 of 10000 to 30000 nM. CN(C)CC1(COc2nc3c4ccc(c(F)c4n2)-c2c(c(Cl)cc4[nH]ncc24)CCCCC(=O)NCCC2CCCN3C2)CC1 (single isomer, unassigned) [Compound 197a, 1^6-chloro-2^2-((1-((dimethylamino)methyl)cyclopropyl)methoxy)-2^8-fluoro-1^1H-6-aza-2(7,4)-quinazolina-1(4,5)-indazola-3(1,3)-piperidinacycloundecaphan-7-one] was tested, and the IC50 was ≤ 100 nM. In the case of CN(C)CC1(COc2nc3c4ccc(c(F)c4n2)-c2c(c(Cl)cc4[nH]ncc24)CCCCC(=O)NCCC2CCCN3C2)CC1 (single isomer, unassigned) [Compound 197b, 1^6-chloro-2^2-((1-((dimethylamino)methyl)cyclopropyl)methoxy)-2^8-fluoro-1^1H-6-aza-2(7,4)-quinazolina-1(4,5)-indazola-3(1,3)-piperidinacycloundecaphan-7-one], the IC50 is reported as ≤ 100 nM. In the case of O=C1CCCCc2c(Cl)cc3[nH]ncc3c2-c2ccc3c(nc(OC[C@@]45CCCN4C[C@H](F)C5)nc3c2F)N2CCCC(CCN1)C2 (single isomer, unassigned) [Compound 202a], the IC50 is reported as ≤ 100 nM. In the case of O=C1CCCCc2c(Cl)cc3[nH]ncc3c2-c2ccc3c(nc(OC[C@@]45CCCN4C[C@H](F)C5)nc3c2F)N2CCCC(CCN1)C2 (single isomer, unassigned) [Compound 202b], the IC50 is reported as ≤ 100 nM. For O=C1CCCc2c(F)ccc3cc(O)cc(c23)-c2ncc3c(nc(OC[C@@]45CCCN4C[C@H](F)C5)nc3c2F)N2CCCC(CCN1)C2 (stereo partly drawn) [Compound 118a, 2^8,3^7-difluoro-2^2-(((2R,7aS)-2-fluorotetrahydro-1H-pyrrolizin-7a(5H)-yl)methoxy)-3^3-hydroxy-8-aza-2(4,7)-pyrido[4,3-d]pyrimidina-1(1,3)-piperidina-3(1,8)-naphthalenacyclodecaphan-7-one], the IC50 was ≤ 100 nM. For O=C1CCCc2c(F)ccc3cc(O)cc(c23)-c2ncc3c(nc(OC[C@@]45CCCN4C[C@H](F)C5)nc3c2F)N2CCCC(O)(CCN1)C2 (stereo partly drawn) [Compound 136a, 2^8,3^7-difluoro-2^2-(((2R,7aS)-2-fluorotetrahydro-1H-pyrrolizin-7a(5H)-yl)methoxy)-1^3,3^3-dihydroxy-8-aza-2(4,7)-pyrido[4,3-d]pyrimidina-1(1,3)-piperidina-3(1,8)-naphthalenacyclodecaphan-7-one], the IC50 was ≤ 100 nM. Compound Nc1cc(Cl)c2c(c1)-c1ncc3c(nc(OC[C@@]45CCCN4C[C@H](F)C5)nc3c1F)N1CCOCC(CNC(=O)CCCC2)C1 (stereo partly drawn) [Compound 162a, 3^5-amino-3^3-chloro-2^8-fluoro-2^2-(((2R,7aS)-2-fluorotetrahydro-1H-pyrrolizin-7a(5H)-yl)methoxy)-9-aza-1(4,6)-oxazepana-2(4,7)-pyrido[4,3-d]pyrimidina-3(1,2)-benzenacyclodecaphan-8-one] has an IC50 of 100 to 1000 nM. Compound Nc1cc2c(cc1F)CCCCC(=O)NCCC1CCCN(C1)c1nc(OC[C@@]34CCCN3C[C@H](F)C4)nc3c(F)c-2ccc13 (stereo partly drawn) [Compound 163a, 3^5-amino-2^8,3^4-difluoro-2^2-(((2R,7aS)-2-fluorotetrahydro-1H-pyrrolizin-7a(5H)-yl)methoxy)-9-aza-2(4,7)-quinazolina-1(1,3)-piperidina-3(1,2)-benzenacycloundecaphan-8-one] has an IC50 of 1000 to 10000 nM. In the case of Nc1cc(Cl)c2c(c1)-c1ncc3c(nc(OC[C@@]45CCCN4C[C@H](F)C5)nc3c1F)N1CCC(CCNC(=O)CCCC2)C1 (stereo partly drawn) [Compound 164a, 3^5-amino-3^3-chloro-2^8-fluoro-2^2-(((2R,7aS)-2-fluorotetrahydro-1H-pyrrolizin-7a(5H)-yl)methoxy)-9-aza-2(4,7)-pyrido[4,3-d]pyrimidina-1(1,3)-pyrrolidina-3(1,2)-benzenacycloundecaphan-8-one], the IC50 is reported as 1000 to 10000 nM.
